This is an account of results in patent US20200101034A1, “RAPID AND CONTROLLED DELIVERY OF COMPOSITIONS WITH RESTORED ENTOURAGE EFFECTS” (RECEPTOR HOLDINGS, INC., priority 2017, published 2020).

Read-outs that look alike come from different tables or passages of the source.

Data set [1] is described as follows: Cannabis/SNAC oral rat pharmacokinetic (PK) study. The class given is in vivo, rats. Particulars: for Tmax / AUC(0-t): rat, plasma, po; for Tmax: read-out: time to reach the mean maximum plasma concentration (Tmax); for AUC(0-t): read-out: AUC0-Tlast; for AUC0-Tlast versus the cannabis alone group: rats, oral, same cannabis extract dose in the presence of SNAC (250 mg/kg or 500 mg/kg). Here is the method:
Example 4. Summary of cannabis/SNAC oral rat pharmacokinetic (PK) study.
Methods. Animals were dosed on Day 1 and a series of blood samples were collected over a period of 4 hours post dose for pharmacokinetic evaluation. Animals were euthanized following collection of their last blood sample.

Data set [2] deals with study participants. As to the kind of experiment: Onset and duration of action of orally administered cannabis/SNAC composition at a low SNAC dose (100 mg). The class given is in vivo, human. Particulars: 100 mg SNAC with cannabis concentrate, oral. How it is done: Example 2. […] This study was designed to assess the utility of SNAC in enabling a rapid-acting oral form of cannabis at a low dose.
Selection of Participants. Three study participants were recruited to ingest cannabis compositions and record the onset, duration, and intensity of cannabis-induced euphoria and/or dysphoria.
(§1) Formulations. The selected cannabis concentrate is commercially available and was provided to participants in an ethanol solution. The concentrate contains 8 mg THC per dose. It was selected because it contains a high percentage of THC, which provides a noticeable effect on user- reported “euphoria”.
(§2) Methods. For the Control experiment, each participant mixed the cannabis concentrate with 15 ml (one tablespoon) of aqueous ethanol, and immediately swallowed the mixture.
(§3) For both the Control experiment and the Test experiment, each participant recorded the time of dose administration, the time of onset of euphoria and/or dysphoria, and the observed level of euphoria and/or dysphoria in fifteen minute intervals for five hours following administration of the cannabis dose. Euphoria and dysphoria were reported using a scale value, in a range from 1-10.
Results. The results are combined with the data from Example 1 and are reported for all participants in FIG. 8.

The subject of data set [3] is study participants. Description: Onset and duration of action of orally administered cannabis/SNAC composition (200 mg SNAC), participant-reported euphoria/dysphoria. The class given is in vivo, human. The note with it: 200 mg SNAC with cannabis concentrate, oral. How it is done: This study was designed to assess the utility of SNAC in enabling a rapid-acting oral form of cannabis.
Selection of Participants. Six study participants were recruited to ingest cannabis compositions and record the onset, duration, and intensity of cannabis-induced euphoria and/or dysphoria.
as §1, §2, §3

Regarding `CCCCCc1cc(O)c2c(c1)OC(C)(C)[C@@H]1CCC(C)=C[C@@H]21` [THC, delta-9-tetrahydrocannabinol], the Tmax in data set [1] (25 mg/kg) came out at 1 h. In data set [1] (50 mg/kg), the Tmax was 2 h. Also, in data set [1], the AUC(0-t) is 171 to 1260 ng·h/mL and the “AUC0-Tlast versus the cannabis alone group” value was “comparable”.

`C=C(C)[C@@H]1CCC(C)=C[C@H]1c1c(O)cc(CCCCC)cc1O` [CBD, cannabidiol]: in data set [1], the AUC(0-t) was 13.2 to 382 ng·h/mL, the Tmax was 0.25 to 1 h and the “AUC0-Tlast versus the cannabis alone group” value is on record as “comparable”.

Take `O=C([O-])CCCCCCCNC(=O)c1ccccc1O.[Na+]` [SNAC, sodium N-[8-(2-hydroxybenzoyl)amino] caprylate]: the “effect of the absorption enhancer on the duration of action of cannabis” value in the data set on study participants [2] and with study participants [3] was “no effect” each time.
